From US20230406803A1, “TROPOLONE DERIVATIVES AND TAUTOMERS THEREOF FOR IRON REGULATION IN ANIMALS” (Kinesid Therapeutics, Inc, priority 2020, published 2023)

Experiments:
[1] = Ligand facilitated Fe(III) efflux from liposomes; assay type: biochemical; design: unit not given here; details: efflux rate k at 10 μM ligand concentration; ferrozine absorbance 562 nm, 120 min kinetic read
Description: Assay 1: Ligand Facilitated Fe(III) Efflux from Liposomes
Preparation of POPC (1 palmitoyl-2-oleoyl-sn-glycero-3 phosphocholine): Cholesterol Liposomes
A 1M buffer solution of MES and Tris was prepared by dissolving 121.14 grams of Tris base and 213.25 grams of MES hydrate in 500 mL of MilliQ water and adjusted to pH7.0 using an […] HCl solution before bringing the total volume of the solution to 1 L. A 500 mM solution of FeCl3 was prepared by dissolving 0.811 grams of anhydrous FeCl3 in 10 mL of a 0.1M H2SO4 aqueous solution. Inside buffer is prepared in a 50 mL falcon tube, which was added with 25 mL of MilliQ water, 1.61 g of sodium citrate, 1.5 mL of the above FeCl3 solution, and 2.5 mL of the 1M MES/Tris HCl buffer (pH=7.0), and finally additional MilliQ H2O to bring to a 50 mL final volume.
Lipid solution is prepared by dissolving 206.9 mg of POPC (1-palmitoyl-2-oleoyl-sn-glycero-3-phosphocholine) and 8.6 mg of cholesterol in 10 mL of ethanol.
The lipids solution and the inside buffer solution are independently loaded into 10 mL luer lock syringes for loading into a virgin cartridge on a Precision Nanosystems NanoAssembler to prepare unilamaller liposomes with the following parameters: 7.5 mL total volume, 1.5:1 mixing ratio of inside buffer:lipids solution, 8 mL/min flow rate, ambient temperature, 0.35 mL start waste, and 0.05 mL of end waste. 7.5 mL of liposomes is harvested for purification on a 6-inch long, 1-inch diameter Sephadex G-50 column wetted in 600 mM sodium ascorbate and 50 mM MES/Tris HCl pH 7.0 buffer. This buffer also serves as the column running buffer. The crude liposome solution is carefully loaded with minimal volume of running buffer above the top of the Sphadex, allowed to enter the matrix, and the column is run with the continued addition of running buffer. The eluting liposomes, observed as a milky and turbid solution, are collected until free iron begins to elute (observed as a deep purple color) and the fractions are pooled for phosphorus quantitation.
Determination of Phosphorus Content:
Phosphorus content of eluted liposomes was determined by the process outlined below. 10 μL of liposome elution and a running buffer blank are added to a 5 mL glass vial containing 450 μL of a 8.9 M aqueous H2SO4 solution, the mixture is heated to 225° C. for 25 minutes in an aluminum heat block to hydrolyze POPC and cooled for 5 minutes. 200 μL of a 30% hydrogen peroxide aqueous solution is added to each vial and heated to 225° C. for 25 minutes. After cooling, the phosphorus content was determined using an Abcam Phosphate Assay kit, with buffer subtracted phosphorus levels determined against a standard curve of phosphate included in the kit. Liposomes were diluted to 1 mM phosphate in Running Buffer for use in assays after accounting for dilutions made during phospholipid digestion.
Determination of the Iron Transporting Rate Constant of the Ligands:
Determination of the rate at which a small molecule ligand liberates (transport) Ferric iron from liposomes is performed in clear bottom black 384-well plates on a Spectramax i3x set to read the absorbance at 562 nm in the kinetic mode every 60 seconds for 120 minutes. 1 μL of serially diluted DMSO stock solution of a small molecule ligand is added to wells in triplicate to give the final concentrations of 40, 20, 10, 5, 2.5, and 1.25 uM of the ligand at 80 μL final volume, followed by addition of 1 μL of 100 mM Ferrozine in water to give a final concentration of 1 mM ferrozine. 78 μL of liposomes diluted to 1 mM phosphorus in running buffer is added to wells as quickly as possible (using a digital repeater multichannel pipette) with the kinetic read initiated as rapidly as possible after addition of liposomes to all wells. Typically, eight compounds at six concentrations are tested in triplicate simultaneously. […]

Mouse 6-hour PK study = details: mouse, in vivo
Excerpt: Useful such assays include, but are not limited to e.g., those measurements made in PK studies, such as rodent and non-human primate PK studies, including e.g., mouse (such as mouse 6-hour PK studies), rat PK studies, cynomolgus or rhesus PK studies, or the like. Useful measurements obtained in such PK studies include but are not limited to e.g., maximum concentration (Cmax) reflecting the “peak” of a drug observed after its administration that can reflect not only the rate but also the extent of absorption, area under the curve (AUC) representing the area under the plot of tissue (e.g., plasma) concentration against time after drug administration which is of particular use in estimating bioavailability of drugs and drug total clearance, half-life (t1/2) or the period of time required for the concentration or amount of drug to be reduced to exactly one-half of a given concentration or amount that indicates the persistence of the drug in its volume of distribution, and the like.
Such assessments included human and mouse liver microsomal stability assays as well as 6-hour mouse PK studies.

Compound	Liposome Fe transport kefflux at 10 μM [1]	other results
COc1ccc(O)c(=O)cc1	5-7.5	
Cc1cccc(C2CCCCO2)c(O)c1=O (stereo not drawn)	<.1	
O=c1cccc(C2CC3CC3C2)cc1O (stereo not drawn)	0.1-5	
O=c1ccccc(C2CC3CC3C2)c1[O-].[Na+] (stereo not drawn)	0.1-5	
CC1(C)CCC(c2ccc(O)c(=O)cc2)C1 (stereo not drawn)	0.1-5	
O=c1cccc(C2CCC3(CC2)CC3)cc1O	0.1-5	
Cc1cccc(C2CCCO2)c(O)c1=O (stereo not drawn)	10-25	
O=c1cccc(OC2CCC2)cc1O	0.1-5	
O=c1ccccc(OC2CCCC2)c1O	7.5-10	
CC(C)c1cccc(=O)c(S)c1	0.1-5	
CC(C)c1cccc(S)c(=O)c1	0.1-5	
O=c1c(F)cccc(OC2CCC2)c1O	10-25	
O=c1ccc(OC2CCCC2)ccc1O	5-7.5	
O=c1cccc2c(c1O)OCCC2	5-7.5	
O=c1c(F)cccc(C2CC2)c1O	7.5-10	
COC1CCCC1c1ccccc(=O)c1O (stereo not drawn)	5-7.5	
Cc1coc2c(O)c(=O)cccc12	7.5-10	
O=c1c(F)cccc(OC2CCCC2)c1O	7.5-10	
O=c1c(F)cccc(C2CCCCO2)c1O (stereo not drawn)	5-7.5	
O=c1c(O)ccc(C2CC2)cc1F	10-25	
O=c1ccc(F)ccc1O	7.5-10	
O=c1ccccc(CC2COC2)c1O	<0.1	
CC1(c2ccc(O)c(=O)cc2)CC1	0.1-5	
CC(C)c1ccc(F)cc(O)c1=O	0.1-5	
Cc1cc(F)ccc(=O)c1O	5-7.5	
O=c1ccc(F)cc(C2CCCO2)c1O (stereo not drawn)	5-7.5	
O=c1c(O)ccc(OC2CCCC2)cc1F	5-7.5	

Compound	Liposome Fe transport kefflux at 10 μM [1]	other results
O=c1cccc(F)cc1O	0.1-5	
CCc1ccc(F)c(=O)c(O)c1	0.1-5	
CC(C)c1cc(F)ccc(=O)c1O	0.1-5	
O=c1ccc(F)cc(C2CCCCO2)c1O (stereo not drawn)	0.1-5	
O=c1ccc(OC2CC3(CC3)C2)ccc1O	0.1-5	
O=c1ccccc(OCC2CCC2)c1O	5-7.5	
O=c1c(F)cccc(OC2CC2)c1O	0.1-5	
CC1(c2ccc(O)c(=O)c(F)c2)CC1	5-7.5	
O=c1c(F)cccc(OC2CC3(CC3)C2)c1O	0.1-5	
O=c1ccc(C(CO)Cc2ccccc2)ccc1O (stereo not drawn)	0.1-5	
O=c1ccc(F)cc(C2CCOCC2)c1O	7.5-10	
O=c1ccc(F)cc(OC2CCC2)c1O	0.1-5	
Cc1cc(Cl)ccc(=O)c1O	5-7.5	
O=c1cccc(OC2CC3(CC3)C2)cc1O	5-7.5	
C[C@@H]1CCC(c2ccccc(=O)c2O)O1 (mixture of isomers)	5-7.5	
CC1CCC(c2ccccc(=O)c2O)O1 (racemic)	5-7.5	
O=c1cccc(O[C@H]2CCOC2)cc1O (stereo in doubt)	5-7.5	
C[C@@H](Oc1ccccc(=O)c1O)C1CC1 (stereo in doubt)	5-7.5	
C[C@H](Oc1ccccc(=O)c1O)C1CC1 (stereo in doubt)	5-7.5	
O=c1cccc(C2CC3CCC(C2)O3)cc1O (stereo not drawn) [Ex. 6, 4-(8-oxabicyclo[3.2.1]octan-3-yl)-2-hydroxycyclohepta-2,4,6-trien-1-one]		AUC(0-t) (Mouse 6-hour PK study): 500 to 1500 ng·h/mL; Cmax (Mouse 6-hour PK study): 500 to 1500 ng/mL; half-life (Mouse 6-hour PK study): 1.25 to 4.99 h; mouse 6-hour PK properties as compared to hinokitiol (Mouse 6-hour PK study): one or more improved mouse 6-hour PK properties as compared to hinokitiol
O=c1ccccc(C2CCOCC2)c1O [Ex. 8, 2-hydroxy-3-(tetrahydro-211-pyran-4-yl)cyclohepta-2,4,6-trien-1-one]		AUC(0-t) (Mouse 6-hour PK study): 500 to 1500 ng·h/mL; Cmax (Mouse 6-hour PK study): 500 to 1500 ng/mL; half-life (Mouse 6-hour PK study): 1.25 to 4.99 h; mouse 6-hour PK properties as compared to hinokitiol (Mouse 6-hour PK study): one or more improved mouse 6-hour PK properties as compared to hinokitiol
CCc1cccc(C)c(=O)c1O [Ex. 27, 7-ethyl-2-hydroxy-3-methylcyclohepta-2,4,6-trien-1-one]		AUC(0-t) (Mouse 6-hour PK study): 500 to 1500 ng·h/mL; Cmax (Mouse 6-hour PK study): 500 to 1500 ng/mL; half-life (Mouse 6-hour PK study): 1.25 to 4.99 h; mouse 6-hour PK properties as compared to hinokitiol (Mouse 6-hour PK study): one or more improved mouse 6-hour PK properties as compared to hinokitiol
Cc1cc(C(C)C)ccc(O)c1=O [Ex. 28, 7-hydroxy-4-isopropyl-2-methylcyclohepta-2,4,6-trien-1-one]		AUC(0-t) (Mouse 6-hour PK study): < 499 ng·h/mL; Cmax (Mouse 6-hour PK study): < 499 ng/mL; half-life (Mouse 6-hour PK study): 1.25 to 4.99 h; mouse 6-hour PK properties as compared to hinokitiol (Mouse 6-hour PK study): one or more improved mouse 6-hour PK properties as compared to hinokitiol
Cc1cccc(C(C)C)c(O)c1=O [Ex. 30, 2-hydroxy-3-isopropyl-7-methylcyclohepta-2,4,6-trien-1-one]		AUC(0-t) (Mouse 6-hour PK study): < 499 ng·h/mL; Cmax (Mouse 6-hour PK study): < 499 ng/mL; half-life (Mouse 6-hour PK study): 5 to 9.99 h; mouse 6-hour PK properties as compared to hinokitiol (Mouse 6-hour PK study): one or more improved mouse 6-hour PK properties as compared to hinokitiol
O=c1c(O)cc(C2CC2)ccc1F [Ex. 34, 4-cyclopropyl-7-fluoro-2-hydroxycyclohepta-2,4,6-trien-1-one]		AUC(0-t) (Mouse 6-hour PK study): > 20000 ng·h/mL; Cmax (Mouse 6-hour PK study): 5000 to 20000 ng/mL; half-life (Mouse 6-hour PK study): 1.25 to 4.99 h; mouse 6-hour PK properties as compared to hinokitiol (Mouse 6-hour PK study): one or more improved mouse 6-hour PK properties as compared to hinokitiol
O=c1ccccc(OC2CC3(CC3)C2)c1O [Ex. 82, 2-hydroxy-3-(spiro[2.3]hexan-5-yloxy)cyclohepta-2,4,6-trien-1-one]		AUC(0-t) (Mouse 6-hour PK study): 500 to 1500 ng·h/mL; Cmax (Mouse 6-hour PK study): < 499 ng/mL; half-life (Mouse 6-hour PK study): < 1.25 h; mouse 6-hour PK properties as compared to hinokitiol (Mouse 6-hour PK study): one or more improved mouse 6-hour PK properties as compared to hinokitiol
O=c1ccccc(OCC2CC2)c1O [Ex. 83, 3-(cyclopropylmethoxy)-2-hydroxycyclohepta-2,4,6-trien-1-one]		AUC(0-t) (Mouse 6-hour PK study): 500 to 1500 ng·h/mL; Cmax (Mouse 6-hour PK study): 1500 to 5000 ng/mL; half-life (Mouse 6-hour PK study): < 1.25 h; mouse 6-hour PK properties as compared to hinokitiol (Mouse 6-hour PK study): one or more improved mouse 6-hour PK properties as compared to hinokitiol
